Test system: P12-Ichikawa
Assay: cell viability relative to DMSO control; higher = less cytotoxic
Settings: 48 h
Outline: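 NOMO1 or SEM cells were plated at 500 cells/well and P12-Ichikawa cells at 1000 cells/well in 1536-well plates (5 μl), after each leukemia line had been adapted for at least four passages in each medium. Pin dosing delivered library compounds in DMSO at 11 threefold concentrations, 47 μM to 0.79 nM. CellTiter-Glo One luminescence was read after 48 h at 37°C. Viability is reported as a per-plate percentage of DMSO wells, with cell-free wells as background.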

[1] = HPLM + 10% dialyzed FBS, 0.000781 µM
[2] = HPLM + 10% dialyzed FBS, 0.00234 µM
[3] = HPLM + 10% dialyzed FBS, 0.00702 µM
[4] = HPLM + 10% dialyzed FBS, 0.0211 µM
[5] = HPLM + 10% dialyzed FBS, 0.0632 µM
[6] = HPLM + 10% dialyzed FBS, 0.19 µM
[7] = HPLM + 10% dialyzed FBS, 0.569 µM
[8] = HPLM + 10% dialyzed FBS, 1.71 µM
[9] = HPLM + 10% dialyzed FBS, 5.12 µM
[10] = HPLM + 10% dialyzed FBS, 15.4 µM
[11] = HPLM + 10% dialyzed FBS, 46.1 µM
[12] = RPMI 5 mM glucose + 10% FBS, 0.000781 µM
[13] = RPMI 5 mM glucose + 10% FBS, 0.00234 µM
[14] = RPMI 5 mM glucose + 10% FBS, 0.00702 µM
[15] = RPMI 5 mM glucose + 10% FBS, 0.0211 µM
[16] = RPMI 5 mM glucose + 10% FBS, 0.0632 µM
[17] = RPMI 5 mM glucose + 10% FBS, 0.19 µM
[18] = RPMI 5 mM glucose + 10% FBS, 0.569 µM
[19] = RPMI 5 mM glucose + 10% FBS, 1.71 µM
[20] = RPMI 5 mM glucose + 10% FBS, 5.12 µM
[21] = RPMI 5 mM glucose + 10% FBS, 15.4 µM
[22] = RPMI 5 mM glucose + 10% FBS, 46.1 µM
[23] = RPMI 5 mM glucose + 10% dialyzed FBS, 0.000781 µM
[24] = RPMI 5 mM glucose + 10% dialyzed FBS, 0.00234 µM
[25] = RPMI 5 mM glucose + 10% dialyzed FBS, 0.00702 µM
[26] = RPMI 5 mM glucose + 10% dialyzed FBS, 0.0211 µM
[27] = RPMI 5 mM glucose + 10% dialyzed FBS, 0.0632 µM
[28] = RPMI 5 mM glucose + 10% dialyzed FBS, 0.19 µM
[29] = RPMI 5 mM glucose + 10% dialyzed FBS, 0.569 µM
[30] = RPMI 5 mM glucose + 10% dialyzed FBS, 1.71 µM
[31] = RPMI 5 mM glucose + 10% dialyzed FBS, 5.12 µM
[32] = RPMI 5 mM glucose + 10% dialyzed FBS, 15.4 µM
[33] = RPMI 5 mM glucose + 10% dialyzed FBS, 46.1 µM

Structure (SMILES)	cell viability [1] [%]	cell viability [2] [%]	cell viability [3] [%]	cell viability [4] [%]	cell viability [5] [%]	cell viability [6] [%]	cell viability [7] [%]	cell viability [8] [%]	cell viability [9] [%]	cell viability [10] [%]	cell viability [11] [%]	cell viability [12] [%]	cell viability [13] [%]	cell viability [14] [%]	cell viability [15] [%]	cell viability [16] [%]	cell viability [17] [%]	cell viability [18] [%]	cell viability [19] [%]	cell viability [20] [%]	cell viability [21] [%]	cell viability [22] [%]	cell viability [23] [%]	cell viability [24] [%]	cell viability [25] [%]	cell viability [26] [%]	cell viability [27] [%]	cell viability [28] [%]	cell viability [29] [%]	cell viability [30] [%]	cell viability [31] [%]	cell viability [32] [%]	cell viability [33] [%]
C/C(=C\c1csc(C)n1)[C@@H]1C[C@@H]2O[C@]2(C)CCC[C@H](C)[C@H](O)[C@@H](C)C(=O)C(C)(C)[C@@H](O)CC(=O)O1	33.8	32.1	28.8	58.9	28.1	22.6	23.1	25.3	30.8	17.1	21.4	18.2	19.1	23.7	44.1	24.6	22.6	24.3	22.7	25.6	24.2	27	44.5	34.4	31.2	58	37.6	35.4	32.6	32.8	43.7	35.5	38
COC1=CC(=CC=C1)C2=CC=C(NC(=O)/C3=C(/CCC3)C(O)=O)C(=C2)F	111	113	116	110	110	113	113	106	100	80.1	57.6	116	116	118	113	109	111	105	105	96.6	79.6	51.7	109	120	114	105	110	110	113	106	92.2	69.6	37.4
Cn1c(=O)c2[nH]cnc2n(C)c1=O	104	113	116	114	111	110	116	109	114	106	104	112	113	115	117	109	115	124	106	112	108	105	115	111	113	107	111	116	107	108	111	99.7	94.2
O=C(NCCCNc1nc(Nc2cccc(NC(=O)N3CCCC3)c2)ncc1I)c1cccs1	91.6	91.9	93	90.9	87.3	84	81.3	72.5	84.9	76.1	85.1	83.2	91	87.6	90	85.9	90.4	94.2	50	84.5	83.7	79.9	88.1	84.6	79.8	82.6	91.7	88.1	84.9	81.4	80.2	85.6	72.4
